SMILES strings stand for the structures.

The target of assay [1] is T1, Integrase (Human immunodeficiency virus 1, UniProt Q7ZJM1). The assay is described as follows: Inhibitory activity against 3'-processing of DNA by HIV-1 integrase.
Assay [2] deals with T1, Integrase. As to the kind of experiment: Inhibitory activity against 3'-processing of DNA byHIV-1 integrase.
Assay [3] concerns the target T1, Integrase. The assay is described as follows: Integration of DNA by HIV -1 integrase.

T1 sequence (Q7ZJM1 whole entry): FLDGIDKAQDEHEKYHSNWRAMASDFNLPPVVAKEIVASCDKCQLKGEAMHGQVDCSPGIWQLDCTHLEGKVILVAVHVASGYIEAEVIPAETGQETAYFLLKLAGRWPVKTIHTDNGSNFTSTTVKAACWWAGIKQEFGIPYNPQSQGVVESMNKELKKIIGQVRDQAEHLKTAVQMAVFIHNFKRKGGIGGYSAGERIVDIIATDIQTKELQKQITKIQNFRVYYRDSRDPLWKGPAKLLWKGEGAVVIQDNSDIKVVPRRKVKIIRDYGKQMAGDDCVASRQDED

On to `O=c1oc2ccccc2c(O)c1C(c1ccco1)c1c(O)c2ccccc2oc1=O`, for which inhibition in assay [1] was half-maximal at 34 µM (IC50). As for `O=c1oc2ccccc2c(O)c1C(c1ccc([N+](=O)[O-])cc1)c1c(O)c2ccccc2oc1=O`, in assay [2], 50 µM corresponded to half-maximal inhibition (IC50). Take `CN(C)c1ccc(C(c2c(O)c3ccccc3oc2=O)c2c(O)c3ccccc3oc2=O)cc1`: the IC50 (in general, the midpoint of a concentration-inhibition curve) was 88 µM in assay [2], 50 µM in assay [3] and 100 µM in assay [1]. As to `O=c1oc2ccccc2c(O)c1C(c1ccc2ccccc2c1)c1c(O)c2ccccc2oc1=O`, the IC50 in assay [3] was determined as 16 µM; in assay [1], 20 µM. For the compound `O=c1oc2ccccc2c(O)c1C(c1ccc(-c2ccccc2)cc1)c1c(O)c2ccccc2oc1=O`, the IC50 in assay [1] came to 14 µM.

For `O=c1oc2ccccc2c(O)c1C(c1ccc(OCc2ccccc2)cc1)c1c(O)c2ccccc2oc1=O` [3-[4-benzyloxyphenyl(4-hydroxy-2-oxo-2H-3-chromenyl)methyl]-4-hydroxy-2H-2-chromenone], the IC50 in assay [1] is 19 µM. On to `O=c1oc2ccccc2c(O)c1C(c1cc(OCc2ccccc2)cc(OCc2ccccc2)c1)c1c(O)c2ccccc2oc1=O`, for which the 50% inhibitory concentration (IC50) in assay [3] came to 12 µM. `O=c1oc2ccccc2c(O)c1C(c1cccs1)c1c(O)c2ccccc2oc1=O` displayed an IC50 in assay [1] of 100 µM. Still for that read-out and setting: for `O=c1oc2ccccc2c(O)c1Cc1cccc(Cc2c(O)c3ccccc3oc2=O)c1` [4-hydroxy-3-[3-(4-hydroxy-2-oxo-2H-3-chromenylmethyl)benzyl]-2H-2-chromenone] the value was 34 µM; for `O=c1oc2ccccc2c(O)c1C(c1ccc2c(c1)Cc1ccccc1-2)c1c(O)c2ccccc2oc1=O` [3-[9H-2-fluorenyl(4-hydroxy-2-oxo-2H-3-chromenyl)methyl]-4-hydroxy-2H-2-chromenone], 11 µM.
